Reference: paper PMC5771238 (Neuropharmacology, 2017)
Like-named read-outs stand apart in the source and are kept apart here.

Assays:
ICR mice = test: Cannabinoid tetrad tests; assay type: in vivo, mouse; details: for effect on THC's effects on activity, hypothermia, catalepsy / effect on THC's anti-nociceptive effect: 10 mg/kg modulator i.p. 10 min before 30 mg/kg THC; for effect on THC's anti-nociceptive effect: tail flick
C57/Bl6J mice = test: THC drug discrimination; assay type: in vivo, mouse; details: for effect on response rates / substitution for THC when administered alone / effect on THC's discriminative stimulus effects: second group; for effect on THC's discriminative stimulus effects: modulators 10 mg/kg, rimonabant 1 mg/kg with 5.6 mg/kg THC
CB1 receptor [1] = target: T1, CB1 receptor (Mus musculus, UniProt P47746)
CB1 receptor [2] = target: T1, CB1 receptor; test: [3H]CP55,940 specific binding
CB1 receptor [3] = target: T1, CB1 receptor; test: CP55,940-stimulated [35S]GTPγS binding in mouse cerebellar membranes; assay type: biochemical; details: for alpha ± SEM (binding cooperativity with CP55,940) / beta ± SEM (efficacy modifier): allosteric operational model, logKA=−6.6, Emax=100, TA=14, TB=0, n=1, LogKB from [3H]SR141716 binding
CB1 receptor [4] = target: T1, CB1 receptor; test: THC-stimulated [35S]GTPγS binding in mouse cerebellar membranes; assay type: biochemical; details: pregnenolone 1 – 10 μM
CB1 receptor [5] = target: T1, CB1 receptor; test: biochemical; details: pKB ± SEM
mice = test: Feeding in mice; assay type: in vivo, mouse; details: 30 mg/kg; unpublished results
[6] = 1 nM [3H]SR141716, allosteric ternary complex model, no GDP
[7] = 3 parameter non-linear regression

T1 sequence (P47746 whole entry): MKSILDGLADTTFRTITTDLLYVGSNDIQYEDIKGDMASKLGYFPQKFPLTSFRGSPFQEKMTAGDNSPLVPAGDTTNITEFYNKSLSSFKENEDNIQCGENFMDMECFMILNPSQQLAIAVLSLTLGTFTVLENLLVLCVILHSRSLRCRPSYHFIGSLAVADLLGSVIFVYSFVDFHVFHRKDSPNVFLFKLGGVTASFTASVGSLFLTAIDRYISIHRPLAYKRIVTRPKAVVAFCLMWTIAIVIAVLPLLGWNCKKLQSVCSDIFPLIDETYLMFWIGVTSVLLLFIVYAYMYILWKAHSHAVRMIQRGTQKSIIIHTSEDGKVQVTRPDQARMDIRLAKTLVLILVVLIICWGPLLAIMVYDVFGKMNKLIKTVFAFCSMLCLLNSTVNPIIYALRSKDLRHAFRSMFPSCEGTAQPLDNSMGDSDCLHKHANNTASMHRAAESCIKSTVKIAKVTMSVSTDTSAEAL

SMILES: CCCCCc1cc(O)c2c(c1)OC(C)(C)[C@@H]1CCC(C)=C[C@@H]21 [THC, delta-9-tetrahydrocannabinol]
- effect on locomotor activity (ICR mice; THC 30 mg/kg i.p. with vehicle): did not affect locomotor activity
- tetrad effects: antinociception, hypothermia, catalepsy (ICR mice; THC 30 mg/kg i.p. with vehicle): produced rimonabant-reversible antinociception (Figure 4B), hypothermia (Figure 4C), and catalepsy (Figure 4D)

SMILES: CC(=O)[C@H]1CC[C@H]2[C@@H]3CC=C4C[C@@H](O)CC[C@]4(C)[C@H]3CC[C@]12C [pregnenolone]
- substitution and response rate effects in combination with vehicle (C57/Bl6J mice; first group, compound alone): neither compound produced substitution or response rate effects
- effect on THC's effects in the cannabinoid tetrad (ICR mice; stated in abstract only): did not block THC’s effects

SMILES: Cc1c(C(=O)NN2CCCCC2)nn(-c2ccc(Cl)cc2Cl)c1-c1ccc(Cl)cc1 [SR141716, rimonabant]
- effect on response rates (C57/Bl6J mice): significantly decreased response rates
- substitution for THC when administered alone (C57/Bl6J mice): without substituting themselves when administered alone
- effect on THC's discriminative stimulus effects (C57/Bl6J mice): blocked THC’s discriminative stimulus effects
- effect on locomotor activity in combination with THC (ICR mice; 3 mg/kg rimonabant and 30 mg/kg THC): increased activity
- reversal of THC-induced antinociception, hypothermia, catalepsy (ICR mice; 3 mg/kg rimonabant i.p. before 30 mg/kg THC): rimonabant-reversible
- effect on locomotor activity, anti-nociception, rectal temperature, catalepsy when followed by vehicle injection (ICR mice; 10 mg/kg modulator or 3 mg/kg rimonabant i.p., vs vehicle/vehicle): did not have any effect

SMILES: N#Cc1ccc(NC(=O)Nc2cccc(-c3cccc(N4CCCC4)n3)c2)cc1 [RTICBM-28]
- effect on response rates (C57/Bl6J mice): Neither compound decreased response rates
- effect on THC's discriminative stimulus effects (C57/Bl6J mice): lowered THC potency
- effect on THC's effects on activity, hypothermia, catalepsy (ICR mice): did not alter
- effect on THC's anti-nociceptive effect (ICR mice): but not RTICBM-15 or RTICBM-28, decreased THC’s anti-nociceptive effect
- logα ± SEM (cooperativity with [3H]SR141716) (CB1 receptor [1]; [6]): −1.13 ± 0.18
- pKB ± SEM (CB1 receptor [1]; [6]): 6.65 ± 0.11
- pKB ± SEM (CB1 receptor [1]; in presence of 30 μM GDP): 5.86 ± 0.10
- Top ± SEM (maximal increase in specific binding of [3H]CP55,940) (CB1 receptor [2]; [7]): 477.5 ± 15.14
- pEC50 ± SEM for increase in specific binding of [3H]CP55,940 (CB1 receptor [2]; [7]): 6.61 ± 0.07
- pIC50 ± SEM (CB1 receptor [3]; CP55,940 10 nM): 7.34 ± 0.05
- pIC50 ± SEM (CB1 receptor [3]; CP55,940 1 μM): 7.72 ± 0.03
- pIC50 ± SEM (CB1 receptor [3]; CP55,940 10 μM): 7.59 ± 0.03
- alpha ± SEM (binding cooperativity with CP55,940) (CB1 receptor [3]): 201.1 ± 11.95
- beta ± SEM (efficacy modifier) (CB1 receptor [3]): 0.001 ± 0.001
- effect on THC-stimulated [35S]GTPγS binding (CB1 receptor [4]): produced insurmountable antagonism

SMILES: O=C(Nc1ccc(Cl)cc1)Nc1cccc(-c2cccc(N3CCCC3)n2)c1 [PSNCBAM-1, 1-(4-chlorophenyl)-3-{3-[6-(pyrrolidin-1-yl)pyridin-2-yl]phenyl}urea]
- effect on response rates (C57/Bl6J mice): Neither compound decreased response rates
- effect on THC's discriminative stimulus effects (C57/Bl6J mice): did not alter THC’s discriminative stimulus effects
- effect on THC's effects on activity, hypothermia, catalepsy (ICR mice): did not alter
- effect on THC's anti-nociceptive effect (ICR mice): decreased THC’s anti-nociceptive effect
- logα ± SEM (cooperativity with [3H]SR141716) (CB1 receptor [1]; [6]): −0.73 ± 0.12
- EC50 (CB1 receptor [2]): 295 nM
- Top ± SEM (maximal increase in specific binding of [3H]CP55,940) (CB1 receptor [2]; [7]): 419.1 ± 8.75
- IC50 (CB1 receptor [3]; IC50, at 100 nM CP55,940): 49.2 nM
- alpha ± SEM (binding cooperativity with CP55,940) (CB1 receptor [3]): 55.01 ± 3.76
- beta ± SEM (efficacy modifier) (CB1 receptor [3]): 0.003 ± 0.001
- IC50 (CB1 receptor [3]; pIC50 ± SEM, CP55,940 10 nM): 83.2 nM
- IC50 (CB1 receptor [3]; pIC50 ± SEM, CP55,940 1 μM): 39.8 nM
- IC50 (CB1 receptor [3]; pIC50 ± SEM, CP55,940 10 μM): 50.1 nM
- Kb (CB1 receptor [5]; [6]): 195 nM
- Kb (CB1 receptor [5]; in presence of 30 μM GDP): 1820 nM
- effect on THC-stimulated [35S]GTPγS binding (CB1 receptor [4]): produced insurmountable antagonism
- effect on feeding in mice (mice): did not observe an effect

SMILES: CCNC1(C(N)=O)CCN(c2ncnc3c2nc(-c2ccccc2Cl)n3-c2ccc(Cl)cc2)CC1 [otenabant]
- effect on response rates (C57/Bl6J mice): significantly decreased response rates
- substitution for THC when administered alone (C57/Bl6J mice): without substituting themselves when administered alone
- effect on THC's discriminative stimulus effects (C57/Bl6J mice): blocked THC’s discriminative stimulus effects
